Nine molecules from ChEMBL document CHEMBL4342433, “Synthesis and anti-CVB3 activity of 4-amino acid derivative substituted pyrimidine nucleoside analogues” (Bioorg Med Chem Lett, 2020) can be followed below.

In data set [1] the test system is Coxsackievirus. Nature of the data set: Antiviral activity against CVB3 infected in African green monkey Vero cells by MTT assay. The format is functional, organism-based, B3.
Data set [2] can be described thus: (§1) Cytotoxicity in African green monkey Vero cells assessed as reduction in cell viability by MTT assay. The class given is cell-based. To be noted: chlorocebus sabaeus, Vero cells; read-out: TC50 (the source's name).
Data set [3] can be described thus: Therapeutic Index, ratio of TC50 for African green monkey Vero cells to IC50 for CVB3 infected in African green monkey Vero cells. The class given is toxicity.
Another data set relates to Vero. Described as §1. The format is cell-based. To be noted: chlorocebus sabaeus, vero; read-out: TC50 (the source's name).
Data set [4] deals with Coxsackievirus. Nature of the data set: Antiviral activity against CVB3 infected in African green monkey Vero cells assessed as reduction in degree of lesion incubated for 5 days by microscopic method. The class given is functional, organism-based. To be noted: B3.

The molecule `CCNC(=O)CC[C@H](Nc1ccn([C@@H]2O[C@@](CO)(N=[N+]=[N-])[C@@H](O)[C@@H]2F)c(=O)n1)C(=O)NCC` came in with an IC50 in the data set with Coxsackievirus [1] (Coxsackievirus, B3, Vero) of over 1000 µM. Besides, in data set [2], the CC50 stood at 150 µM.
Take `NC(=O)c1ncn([C@@H]2O[C@H](CO)[C@@H](O)[C@H]2O)n1` [RIBAVIRIN]: the IC50 in the data set with Coxsackievirus [1] (Coxsackievirus, B3, Vero) worked out at 885 µM. Besides, in data set [2], the CC50 worked out at 31.2 µM. For the same molecule, the selectivity ratio in data set [3] (Vero cells, read-out: TI) amounted to 28.3.
For `[K+].[K+].[N-]=[N+]=N[C@]1(CO)O[C@@H](n2ccc(N[C@@H](CCC(=O)[O-])C(=O)[O-])nc2=O)[C@@H](F)[C@@H]1O`, the IC50 with Coxsackievirus [1] (vero) came out at 282 µM. The CC50 in the data set with Vero worked out at 13.5 µM. In data set [3] (vero), the TI is 20.8.
As for `CNC(=O)CC[C@H](Nc1ccn([C@@H]2O[C@@](CO)(N=[N+]=[N-])[C@@H](O)[C@@H]2F)c(=O)n1)C(=O)NC`, the IC50 in the data set on Coxsackievirus [1] (Coxsackievirus, B3, Vero) was over 1000 µM. Further, in data set [2], the CC50 amounted to 126 µM.
In the data set on Coxsackievirus [1] (Coxsackievirus, B3, Vero), `[N-]=[N+]=N[C@]1(CO)O[C@@H](n2ccc(N[C@@H](CCC(N)=O)C(N)=O)nc2=O)[C@@H](F)[C@@H]1O` showed an IC50 of over 1000 µM. For the same molecule, the CC50 in data set [2] turned out to be 160 µM.
In the data set with Coxsackievirus [1] (Coxsackievirus, B3, Vero), `COC(=O)CC[C@H](Nc1ccn([C@@H]2O[C@@](CO)(N=[N+]=[N-])[C@@H](O)[C@@H]2F)c(=O)n1)C(=O)OC` came in with an IC50 of 1000 µM. Besides, the CC50 in data set [2] was 257 µM.
Regarding `[N-]=[N+]=N[C@]1(CO)O[C@@H](n2ccc(N[C@@H](CCC(=O)O)C(=O)O)nc2=O)[C@@H](F)[C@@H]1O`, the IC50 with Coxsackievirus [1] (Coxsackievirus, B3, Vero) is 488 µM. Moreover, the CC50 in the data set with Vero was 30.7 µM.
The molecule `COC(=O)[C@H](CCC(=O)O)Nc1ccn([C@@H]2O[C@@](CO)(N=[N+]=[N-])[C@@H](O)[C@@H]2F)c(=O)n1` returned an IC50 in the data set with Coxsackievirus [1] (Coxsackievirus, B3, Vero) of 870 µM. Also, the CC50 in data set [2] came to 9.3 µM. In addition, in the data set with Coxsackievirus [4], the Activity result is “Dose-dependent effect”.
Turning to `COC(=O)CC[C@H](Nc1ccn([C@@H]2O[C@@](CO)(N=[N+]=[N-])[C@@H](O)[C@@H]2F)c(=O)n1)C(=O)O`, 648 µM corresponded to half-maximal inhibition in the data set on Coxsackievirus [1] (Coxsackievirus, B3, Vero) (IC50). Moreover, in data set [2], the CC50 was 21.5 µM.
